Reference: the supplement of paper PMC13386468

Key:
Test in all cases: IC50 for competition of protein binding to Kinobeads
Conditions in all cases: assay detail: Kinobeads competition in P. falciparum blood-stage lysate
UniProt O97285 = target: UniProt O97285
UniProt Q8ID31 = target: UniProt Q8ID31
UniProt Q8IHT3 = target: UniProt Q8IHT3
UniProt Q8IKL5 = target: UniProt Q8IKL5
UniProt O77344 = target: UniProt O77344
UniProt Q8ILL3 = target: UniProt Q8ILL3
UniProt Q8ID43 = target: UniProt Q8ID43
UniProt Q8IBU2 = target: UniProt Q8IBU2
UniProt Q8IAX8 = target: UniProt Q8IAX8
Chain of UniProt Q8IAX8 (Q8IAX8 whole entry): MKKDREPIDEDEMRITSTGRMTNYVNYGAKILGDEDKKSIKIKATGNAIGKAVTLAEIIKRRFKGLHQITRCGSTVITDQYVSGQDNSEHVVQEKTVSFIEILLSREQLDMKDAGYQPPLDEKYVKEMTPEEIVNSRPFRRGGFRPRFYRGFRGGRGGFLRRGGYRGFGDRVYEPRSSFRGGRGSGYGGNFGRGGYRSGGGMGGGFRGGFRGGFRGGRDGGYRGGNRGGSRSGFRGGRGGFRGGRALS

UniProt Q8IJR8 = target: UniProt Q8IJR8
UniProt Q8IJI7 = target: UniProt Q8IJI7
UniProt Q8IIJ9 = target: UniProt Q8IIJ9
Chain of UniProt Q8IIJ9 (Q8IIJ9 whole entry): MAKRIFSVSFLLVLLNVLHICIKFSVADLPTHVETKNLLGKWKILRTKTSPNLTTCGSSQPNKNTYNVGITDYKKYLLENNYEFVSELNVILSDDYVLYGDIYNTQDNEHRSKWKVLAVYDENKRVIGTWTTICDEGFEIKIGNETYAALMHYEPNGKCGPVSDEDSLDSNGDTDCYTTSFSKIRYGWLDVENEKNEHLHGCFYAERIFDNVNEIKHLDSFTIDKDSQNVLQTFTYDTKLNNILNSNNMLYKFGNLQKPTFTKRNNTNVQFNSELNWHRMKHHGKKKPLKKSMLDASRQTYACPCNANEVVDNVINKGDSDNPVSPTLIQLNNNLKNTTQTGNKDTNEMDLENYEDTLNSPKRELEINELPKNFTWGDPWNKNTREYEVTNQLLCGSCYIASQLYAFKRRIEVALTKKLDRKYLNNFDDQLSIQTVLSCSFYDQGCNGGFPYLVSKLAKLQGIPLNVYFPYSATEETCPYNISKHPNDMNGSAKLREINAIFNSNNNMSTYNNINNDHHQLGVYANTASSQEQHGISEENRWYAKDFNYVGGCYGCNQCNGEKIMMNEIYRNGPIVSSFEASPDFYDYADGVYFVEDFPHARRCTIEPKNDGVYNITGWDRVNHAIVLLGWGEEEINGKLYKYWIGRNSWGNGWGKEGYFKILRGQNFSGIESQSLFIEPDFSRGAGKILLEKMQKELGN

UniProt Q8IJA9 = target: UniProt Q8IJA9
Chain of UniProt Q8IJA9 (Q8IJA9 whole entry): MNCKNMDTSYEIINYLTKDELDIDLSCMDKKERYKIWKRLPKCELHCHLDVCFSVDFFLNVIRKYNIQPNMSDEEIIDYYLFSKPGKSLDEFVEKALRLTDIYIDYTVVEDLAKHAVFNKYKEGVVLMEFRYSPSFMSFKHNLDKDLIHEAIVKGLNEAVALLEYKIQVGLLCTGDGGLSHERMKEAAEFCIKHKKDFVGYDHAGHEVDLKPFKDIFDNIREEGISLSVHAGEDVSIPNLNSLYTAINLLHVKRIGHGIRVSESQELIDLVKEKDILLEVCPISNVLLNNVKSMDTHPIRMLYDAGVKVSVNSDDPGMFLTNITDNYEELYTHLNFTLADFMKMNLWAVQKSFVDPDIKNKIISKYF

UniProt Q8I5B6 = target: UniProt Q8I5B6
UniProt Q8IFN9 = target: UniProt Q8IFN9
UniProt Q8I2G2 = target: UniProt Q8I2G2
UniProt Q8IHT9 = target: UniProt Q8IHT9
UniProt Q8IK12 = target: UniProt Q8IK12
UniProt Q8IKL1 = target: UniProt Q8IKL1
UniProt Q8IM01 = target: UniProt Q8IM01
UniProt C0H5I7 = target: UniProt C0H5I7
UniProt Q8I3X4 = target: UniProt Q8I3X4
Chain of UniProt Q8I3X4 (Q8I3X4 whole entry): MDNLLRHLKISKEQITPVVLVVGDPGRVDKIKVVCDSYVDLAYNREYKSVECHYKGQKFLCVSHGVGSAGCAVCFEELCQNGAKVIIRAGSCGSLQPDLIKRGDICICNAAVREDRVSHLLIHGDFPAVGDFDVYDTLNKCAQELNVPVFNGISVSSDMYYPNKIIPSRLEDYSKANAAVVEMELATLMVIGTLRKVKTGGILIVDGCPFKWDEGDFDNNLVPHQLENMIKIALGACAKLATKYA

A0A146LZZ4 = target: A0A146LZZ4
UniProt Q8ILC8 = target: UniProt Q8ILC8
UniProt C6KTB4 = target: UniProt C6KTB4
UniProt Q8I3M5 = target: UniProt Q8I3M5
UniProt Q8IL94 = target: UniProt Q8IL94
UniProt Q8IL53 = target: UniProt Q8IL53
UniProt Q8IE81 = target: UniProt Q8IE81
UniProt Q8IHR4 = target: UniProt Q8IHR4
UniProt Q8II92 = target: UniProt Q8II92
UniProt Q7KQL9 = target: UniProt Q7KQL9
Chain of UniProt Q7KQL9 (Q7KQL9 whole entry): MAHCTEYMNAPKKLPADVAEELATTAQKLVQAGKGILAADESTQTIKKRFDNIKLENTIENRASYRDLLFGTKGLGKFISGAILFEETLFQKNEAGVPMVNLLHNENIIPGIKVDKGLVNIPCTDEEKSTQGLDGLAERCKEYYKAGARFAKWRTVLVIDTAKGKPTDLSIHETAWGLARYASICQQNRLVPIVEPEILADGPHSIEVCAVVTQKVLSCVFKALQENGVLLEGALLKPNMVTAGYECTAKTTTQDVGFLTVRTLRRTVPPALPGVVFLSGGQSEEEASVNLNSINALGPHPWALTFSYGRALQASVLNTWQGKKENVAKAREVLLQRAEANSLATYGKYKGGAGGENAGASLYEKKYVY

UniProt Q8IEF0 = target: UniProt Q8IEF0
UniProt Q8IBV7 = target: UniProt Q8IBV7
UniProt Q8IL41 = target: UniProt Q8IL41
UniProt C6KTB1 = target: UniProt C6KTB1
UniProt Q8IDB0 = target: UniProt Q8IDB0
UniProt Q8I2P8 = target: UniProt Q8I2P8
UniProt Q8I431 = target: UniProt Q8I431
UniProt Q8IDJ8 = target: UniProt Q8IDJ8
UniProt Q76NL8 = target: UniProt Q76NL8
Chain of UniProt Q76NL8 (Q76NL8 whole entry): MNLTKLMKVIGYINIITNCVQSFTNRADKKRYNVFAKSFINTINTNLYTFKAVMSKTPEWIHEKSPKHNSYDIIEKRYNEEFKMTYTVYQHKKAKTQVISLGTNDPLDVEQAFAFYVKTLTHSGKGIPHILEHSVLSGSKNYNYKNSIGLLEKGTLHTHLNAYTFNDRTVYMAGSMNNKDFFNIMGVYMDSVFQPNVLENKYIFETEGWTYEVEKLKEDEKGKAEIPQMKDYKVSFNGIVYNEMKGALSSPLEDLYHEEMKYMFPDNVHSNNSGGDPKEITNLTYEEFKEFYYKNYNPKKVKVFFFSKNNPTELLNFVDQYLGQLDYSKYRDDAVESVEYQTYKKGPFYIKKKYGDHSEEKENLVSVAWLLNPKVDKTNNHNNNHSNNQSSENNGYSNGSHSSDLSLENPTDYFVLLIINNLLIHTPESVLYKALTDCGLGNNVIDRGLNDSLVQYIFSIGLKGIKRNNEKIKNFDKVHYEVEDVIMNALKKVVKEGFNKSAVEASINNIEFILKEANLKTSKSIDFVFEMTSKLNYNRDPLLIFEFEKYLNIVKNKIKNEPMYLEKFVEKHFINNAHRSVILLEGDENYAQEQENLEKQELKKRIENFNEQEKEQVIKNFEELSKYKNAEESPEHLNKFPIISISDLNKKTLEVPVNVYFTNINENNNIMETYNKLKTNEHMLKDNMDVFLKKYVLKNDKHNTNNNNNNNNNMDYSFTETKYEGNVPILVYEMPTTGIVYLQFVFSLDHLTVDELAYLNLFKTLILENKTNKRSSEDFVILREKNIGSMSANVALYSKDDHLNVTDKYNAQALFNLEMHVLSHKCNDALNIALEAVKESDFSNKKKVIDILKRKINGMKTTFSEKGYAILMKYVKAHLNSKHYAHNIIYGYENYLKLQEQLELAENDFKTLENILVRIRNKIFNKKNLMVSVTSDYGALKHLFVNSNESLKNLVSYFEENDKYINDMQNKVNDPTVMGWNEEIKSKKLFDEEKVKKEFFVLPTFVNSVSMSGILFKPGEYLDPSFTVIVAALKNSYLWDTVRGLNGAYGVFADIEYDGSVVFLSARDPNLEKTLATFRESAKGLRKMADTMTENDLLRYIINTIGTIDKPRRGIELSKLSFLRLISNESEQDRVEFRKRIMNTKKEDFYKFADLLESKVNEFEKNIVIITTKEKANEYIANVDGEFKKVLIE

UniProt Q8ILT5 = target: UniProt Q8ILT5
Chain of UniProt Q8ILT5 (Q8ILT5 whole entry): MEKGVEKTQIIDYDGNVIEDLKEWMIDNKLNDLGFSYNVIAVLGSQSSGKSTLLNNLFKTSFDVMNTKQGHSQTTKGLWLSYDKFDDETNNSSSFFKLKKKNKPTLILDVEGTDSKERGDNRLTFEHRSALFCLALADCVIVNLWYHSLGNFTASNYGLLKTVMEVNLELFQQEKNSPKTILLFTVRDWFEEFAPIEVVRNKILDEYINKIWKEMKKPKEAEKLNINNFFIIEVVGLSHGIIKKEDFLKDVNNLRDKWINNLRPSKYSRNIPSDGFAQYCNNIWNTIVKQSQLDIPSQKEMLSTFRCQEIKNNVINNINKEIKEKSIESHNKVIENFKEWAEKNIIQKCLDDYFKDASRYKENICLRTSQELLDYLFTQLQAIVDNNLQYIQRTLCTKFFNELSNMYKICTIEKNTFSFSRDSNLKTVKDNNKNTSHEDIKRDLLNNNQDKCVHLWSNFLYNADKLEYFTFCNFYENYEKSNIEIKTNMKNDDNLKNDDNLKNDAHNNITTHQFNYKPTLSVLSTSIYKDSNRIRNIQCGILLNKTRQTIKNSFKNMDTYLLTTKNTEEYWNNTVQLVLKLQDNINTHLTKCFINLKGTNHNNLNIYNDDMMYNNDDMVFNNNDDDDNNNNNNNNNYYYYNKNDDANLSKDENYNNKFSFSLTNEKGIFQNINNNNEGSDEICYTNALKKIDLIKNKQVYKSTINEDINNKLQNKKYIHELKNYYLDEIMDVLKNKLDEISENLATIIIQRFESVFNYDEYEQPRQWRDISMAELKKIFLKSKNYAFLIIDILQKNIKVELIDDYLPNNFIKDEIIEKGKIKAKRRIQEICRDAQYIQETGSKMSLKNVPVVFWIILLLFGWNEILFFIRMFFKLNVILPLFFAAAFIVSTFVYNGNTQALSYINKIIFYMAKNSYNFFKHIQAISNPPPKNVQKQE

UniProt Q8ID28 = target: UniProt Q8ID28
UniProt Q8II01 = target: UniProt Q8II01
UniProt Q8IKS3 = target: UniProt Q8IKS3
UniProt Q8IKK4 = target: UniProt Q8IKK4
UniProt Q8I3R0 = target: UniProt Q8I3R0
UniProt Q8I5L6 = target: UniProt Q8I5L6
UniProt Q8I5H9 = target: UniProt Q8I5H9
UniProt Q8IIK4 = target: UniProt Q8IIK4
Chain of UniProt Q8IIK4 (Q8IIK4 whole entry): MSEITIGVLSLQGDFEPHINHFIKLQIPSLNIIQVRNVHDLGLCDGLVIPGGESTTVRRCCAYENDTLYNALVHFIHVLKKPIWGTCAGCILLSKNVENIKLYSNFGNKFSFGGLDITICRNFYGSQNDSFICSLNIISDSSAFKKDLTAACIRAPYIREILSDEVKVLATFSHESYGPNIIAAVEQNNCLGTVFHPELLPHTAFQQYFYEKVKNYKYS

UniProt C6KT82 = target: UniProt C6KT82
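Further: native unpurified kinases from lysate captured on beads bearing immobilized kinase inhibitors, with bead-bound kinases quantified by mass spectrometry across compound doses.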

O=c1[nH]c2ccc(Cl)cc2c(NC2CN3CCC2CC3)c1-c1nc2ccccc2[nH]1 (stereo unspecified) [CHIR-124]
IC50 (UniProt O97285): > 20 µM | IC50 (UniProt Q8ID31): > 20 µM | IC50 (UniProt Q8IHT3): > 20 µM | IC50 (UniProt Q8IKL5): > 20 µM | IC50 (UniProt O77344): 2.95 µM | IC50 (UniProt Q8ILL3): > 20 µM | IC50 (UniProt Q8ID43): > 20 µM | IC50 (UniProt Q8IBU2): > 20 µM | IC50 (UniProt Q8IAX8): > 20 µM | IC50 (UniProt Q8IJR8): 0.649 µM | IC50 (UniProt Q8IJI7): > 20 µM | IC50 (UniProt Q8IIJ9): > 20 µM | IC50 (UniProt Q8IJA9): > 20 µM | IC50 (UniProt Q8I5B6): > 20 µM | IC50 (UniProt Q8IFN9): > 20 µM | IC50 (UniProt Q8I2G2): > 20 µM | IC50 (UniProt Q8IHT9): > 20 µM | IC50 (UniProt Q8IK12): > 20 µM | IC50 (UniProt Q8IKL1): > 20 µM | IC50 (UniProt Q8IM01): > 20 µM | IC50 (UniProt C0H5I7): > 20 µM | IC50 (UniProt Q8I3X4): > 20 µM | IC50 (A0A146LZZ4): > 20 µM | IC50 (UniProt Q8ILC8): > 20 µM | IC50 (UniProt C6KTB4): > 20 µM | IC50 (UniProt Q8I3M5): > 20 µM | IC50 (UniProt Q8IL94): > 20 µM | IC50 (UniProt Q8IL53): > 20 µM | IC50 (UniProt Q8IE81): > 20 µM | IC50 (UniProt Q8IHR4): > 20 µM | IC50 (UniProt Q8II92): > 20 µM | IC50 (UniProt Q7KQL9): > 20 µM | IC50 (UniProt Q8IEF0): > 20 µM | IC50 (UniProt Q8IBV7): > 20 µM | IC50 (UniProt Q8IL41): > 20 µM | IC50 (UniProt C6KTB1): > 20 µM | IC50 (UniProt Q8IDB0): > 20 µM | IC50 (UniProt Q8I2P8): > 20 µM | IC50 (UniProt Q8I431): > 20 µM | IC50 (UniProt Q8IDJ8): > 20 µM | IC50 (UniProt Q76NL8): > 20 µM | IC50 (UniProt Q8ILT5): > 20 µM | IC50 (UniProt Q8ID28): > 20 µM | IC50 (UniProt Q8II01): > 20 µM | IC50 (UniProt Q8IKS3): > 20 µM | IC50 (UniProt Q8IKK4): > 20 µM | IC50 (UniProt Q8I3R0): > 20 µM | IC50 (UniProt Q8I5L6): > 20 µM | IC50 (UniProt Q8I5H9): 14 µM | IC50 (UniProt Q8IIK4): > 20 µM | IC50 (UniProt C6KT82): > 20 µM
